US8106007B2, “Conjugates of a polypeptide and a pentasaccharide” (N.V. Organon, priority 2005, dated 2012)
Read-outs that look alike come from different tables or passages of the source. Each block holds one molecule with its values, some of them ahead of it. Where a SMILES comes first, the peptide text is derived from it. [ ]: non-standard residue; d: D form. The star is where a group is joined. X1 = CO[C@H]1O[C@H](COS(=O)(=O)O)[C@@H](O[C@@H]2O[C@@H](C(=O)O)[C@@H](O[C@H]3O[C@H](COS(=O)(=O)O)[C@@H](O[C@@H]4O[C@H](C(=O)O)[C@@H](O[C@H]5O[C@H](COS(=O)(=O)O)[C@@H](OCCOCCOCCOCCNC(=O)COCCOCCOCCOCCSC6CC(=O)N(CCCC(=O)*)C6=O)[C@H](OC)[C@H]5OC)[C@H](OC)[C@H]4OC)[C@H](OS(=O)(=O)O)[C@H]3OS(=O)(=O)O)[C@H](OC)[C@H]2OC)[C@H](OS(=O)(=O)O)[C@H]1OS(=O)(=O)O; d(hArg(Et2)) = CCN=C(NCC)NCCCC[C@@H](N)C(=O)O; hArg(Et2) = CCN=C(NCC)NCCCC[C@H](N)C(=O)O; dPhe(4-Cl) = N[C@H](Cc1ccc(Cl)cc1)C(=O)O; d2Nal = N[C@H](Cc1ccc2ccccc2c1)C(=O)O; d3Pal = N[C@H](Cc1cccnc1)C(=O)O

Tests used:
hATIII = hATIII (Homo sapiens, UniProt P01008); assay: Competitive hATIII binding assay using Biomolecular Interaction Analysis (BIA); details: for competitive binding potential to ATIII (in words): compared to parent pentasaccharide-spacer residue / parent peptide; for IC50: 15 nmol/L hATIII, compound 9 immobilised on chip, 25° C., read-out: IC50 BIA (competitive ATIII binding)
Sequence of hATIII (P01008 33-464): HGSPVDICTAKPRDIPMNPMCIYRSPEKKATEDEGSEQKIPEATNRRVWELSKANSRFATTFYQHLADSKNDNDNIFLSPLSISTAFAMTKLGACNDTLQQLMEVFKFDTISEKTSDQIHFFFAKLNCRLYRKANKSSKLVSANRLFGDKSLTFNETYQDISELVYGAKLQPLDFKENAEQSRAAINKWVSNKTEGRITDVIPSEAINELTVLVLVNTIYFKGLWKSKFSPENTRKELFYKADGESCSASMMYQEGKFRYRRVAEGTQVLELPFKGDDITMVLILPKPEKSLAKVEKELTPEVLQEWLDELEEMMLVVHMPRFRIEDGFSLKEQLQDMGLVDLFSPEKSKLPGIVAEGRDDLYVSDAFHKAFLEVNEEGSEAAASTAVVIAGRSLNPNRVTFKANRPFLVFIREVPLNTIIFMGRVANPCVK
Description: The sensorgrams and report points were analysed with blanc flow cell subtraction using BIAevaluation 3.2. IC50 values were calculated using graphpad Prism 3.0.
Principle and aim of the test: Biomolecular Interaction Analysis (BIA) studies the interaction between (bio)molecules by covalent immobilisation of one of the interactants to a sensor chip surface, and injection of the other interactant in the continuous buffer flow over this surface. Binding is registered as a change in refractive index on this surface and is proportional to the molecular weight (Mw) of the interactants.
To study the interaction between hATIII and pentasaccharide conjugates, compound 9 is covalently coupled to the sensor chip surface. Binding of hATIII to the pentasaccharide generates a strong signal as a resultant of the difference in Mw between the bound (small) pentasaccharide ligand and the (large) hATIII analyte. Preincubated samples containing a constant concentration of hATIII and variable concentrations of free pentasaccharide or conjugate were injected over the surface. Binding of pentasaccharide or conjugate to ATIII during preincubation will result in a reduction of ATIII binding to the immobilised pentasaccharide. This competitive binding assay allows determination of IC50 values for each pentasaccharide conjugate.
Experimental procedure: Compound 9 is covalently coupled to a CM5 sensor chip by amine coupling at pH 8.5. […] The unreacted hydroxysuccinimide groups are reacted with ethanolamine for 7 min. The surface is regenerated by three short injections of 5 μL 5 mol/L NaCl, at a flow rate of 25 μL/min.
A concentration series of hATIII was tested to estimate a sensitive concentration for inhibition (at 80% of maximum binding). At a flow rate of 20 μL/min three minute injections were carried out at both blanc and immobilised surface in series at 25° C. A report point is generated at 170 s. The surface is regenerated by a 12 s injection of 5 mol/L NaCl.
The hATIII injection or report point without pentasaccharide conjugate is set at 100% binding. The relative % binding of the pentasaccharides and the conjugates compared to maximum binding was used to generate a sigmoidal curve (with variable slope) by plotting Log [concentration] vs. % binding from which the IC50 values were derived.

[1] = Pharmacokinetics in rat after 125I labeling, not corrected for dehalogenation
Description: (§1) After labeling, the conjugate was purified by gel filtration on Sephadex G25 and anion exchanger HiTrap Q10. […] In order to prevent accumulation of ^125I^− in the thyroid, rats were orally treated with 10 mg/kg potassium iodide prior to administration of compound.
The correct determination of the fate of ^125I-labeled conjugates might be affected aversely by metabolic intracellular endogenous dehalogenation to give free ^125I^− in circulation.

[2] = in rat, i.v., Chan et al. 1991; cited from earlier work
[3] = species not given; cited from earlier work
glucose levels = assay: Glucose suppression test in vivo in rats; parameters: species or system rat; details: i.v. doses of 24 and 48 nmol/kg (FIG. 21, 22)
Description: The animals were fasted overnight (16 hours) prior to the experiment. In the morning blood was sampled from all the rats by cutting a little piece of the tail, after which the blood was dropped on a test strip and the glucose levels were measured with an ACCU-Check Sensor blood glucose monitor (Roche Diagnostics). […] At various time intervals blood samples were taken by removing the crusted blood, after which the glucose content was determined immediately as described.

[4] = rat, in vivo, iv
Description: as §1

rat ATIII = target: T1, rat ATIII (Rattus norvegicus, UniProt A0A8I5Y9G3); assay: Determination of (poly)peptide-pentasaccharide-ATIII complex in rat plasma (sandwich ELISA); assay type: binding; details: plasma 1 min after i.v. 3.5 nmol/kg in rat
T1 construct: from tissue; host or cells: plasma of male Wistar rats
T1 sequence (A0A8I5Y9G3 35-465): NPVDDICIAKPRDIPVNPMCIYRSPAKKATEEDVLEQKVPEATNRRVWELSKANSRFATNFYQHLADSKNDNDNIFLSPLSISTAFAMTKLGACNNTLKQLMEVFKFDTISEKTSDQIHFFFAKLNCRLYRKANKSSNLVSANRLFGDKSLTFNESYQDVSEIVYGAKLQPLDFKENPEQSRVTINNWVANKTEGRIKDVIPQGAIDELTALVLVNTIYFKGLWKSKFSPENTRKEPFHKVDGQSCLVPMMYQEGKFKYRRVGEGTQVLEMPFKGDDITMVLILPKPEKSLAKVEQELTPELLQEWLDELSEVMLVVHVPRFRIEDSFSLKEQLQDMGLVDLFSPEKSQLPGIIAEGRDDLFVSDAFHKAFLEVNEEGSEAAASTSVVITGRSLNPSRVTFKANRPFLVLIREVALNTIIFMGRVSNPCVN

[5] = rat, in vivo, iv, 3.5 nmol/kg
Description: The human Enzyme-Linked Immuno-Sorbent Assay (ELISA) has been developed to measure human insulin in human and rat plasma or buffer system. In this way the ELISA could be used to determine the insulin concentration in plasma samples derived from pharmacokinetic experiments.
The assay is based on the immunochemical “sandwich” principle using two monoclonal antibodies, i.e. a solid phase bound, capture antibody and a detection antibody which is labeled with horseradish peroxidase (HRP).
The plate was washed to remove unbound enzyme-labeled antibody and subsequently the 3,3′,5,5′-tetramethylbenzidine/H2O2 substrate solution was added. The reaction was stopped with 0.5 M sulphuric acid and the microtiter plate was read spectrophotometrically at 450 nm. The intensity of colour is directly proportional to the concentration of insulin. Then for each plasma sample the mean concentration (mol/L) of insulin was determined.
The rats were anaesthetized by inhalation of a mixture of O2/N2O/isoflurane, after which the right jugular vein was cannulated. […] Blood was centrifuged after which the plasma was siphoned off and stored at −20° C. until use. The concentration of the tested compounds in the plasma samples were determined using the human ELISA against a calibration curve which was made of the stock solution of the tested compound itself. The concentration in the samples was expressed in nmol/L and the kinetic parameters were calculated with the noncompartment model of WinNonlin.

[6] = Table 6, rat, i.v., 125I label, not corrected for dehalogenation, n = 3

Cl ([1]; rat, in vivo, iv): 112 ± 9 mL/h
Vss ([1]; rat, in vivo, iv): 556 ± 48 ml/rat
Molecule: CC[C@H](C)[C@H](NC(=O)[C@H](CCC(N)=O)NC(=O)[C@H](Cc1c[nH]cn1)NC(=O)[C@H](C)N)C(=O)N[C@@H](Cc1ccc(O)cc1)C(=O)N[C@@H](CCC(N)=O)C(=O)N[C@@H](Cc1ccccc1)C(=O)N[C@H](C(=O)N[C@@H](CC(=O)O)C(=O)N[C@@H](CCCCN)C(=O)N[C@@H](CC(=O)O)C(=O)N[C@@H](CCCCN)C(=O)N[C@@H](CC(=O)O)C(=O)N[C@@H](CC(N)=O)C(=O)N[C@H](C(=O)N[C@@H](C)C(=O)N1CCC[C@H]1C(=O)N[C@@H](CCCNC(=N)N)C(=O)N[C@@H](CO)C(=O)N[C@@H](CCCCN)C(=O)N[C@H](C(=O)N[C@@H](CO)C(=O)N1CCC[C@H]1C(=O)N[C@@H](CCC(N)=O)C(=O)NCC(=O)N[C@@H](Cc1ccc(O)cc1)C(N)=O)[C@@H](C)CC)C(C)C)[C@@H](C)O [ADM(27-52)] (H-AHQIYQFTDKDKDNVAPRSKISPQGY-NH2; N-terminus and C-terminus assumed)
competitive binding potential to ATIII (in words) (hATIII): no significant competitive binding to ATIII

IC50 (hATIII): 96 nM
Molecule: COC[C@H]1O[C@H](OC)[C@H](OS(=O)(=O)O)[C@@H](OC)[C@@H]1O[C@@H]1O[C@@H](C(=O)O)[C@@H](O[C@H]2O[C@H](COS(=O)(=O)O)[C@@H](O[C@@H]3O[C@H](C(=O)O)[C@@H](O[C@H]4O[C@H](COS(=O)(=O)O)[C@@H](OCCOCCOCCOCCN)[C@H](OC)[C@H]4OC)[C@H](OC)[C@H]3OC)[C@H](OS(=O)(=O)O)[C@H]2OS(=O)(=O)O)[C@H](OC)[C@H]1OC [Compound 7]

IC50 (hATIII): 58 nM
Molecule: COC1OC(COS(=O)(=O)O)C(OC2OC(C(=O)O)C(OC3OC(COS(=O)(=O)O)C(OC4OC(C(=O)O)C(OC5OC(COS(=O)(=O)O)C(OCCOCCOCCOCCN)C(OC)C5OC)C(OC)C4OC)C(OS(=O)(=O)O)C3OS(=O)(=O)O)C(OC)C2OC)C(OC)C1OS(=O)(=O)O (stereo not drawn) [Compound 8]

IC50 (hATIII): 5.5 nM
Molecule: COC1OC(COS(=O)(=O)O)C(OC2OC(C(=O)O)C(OC3OC(COS(=O)(=O)O)C(OC4OC(C(=O)O)C(OC5OC(COS(=O)(=O)O)C(OCCOCCOCCOCCN)C(OC)C5OC)C(OC)C4OC)C(OS(=O)(=O)O)C3OS(=O)(=O)O)C(OC)C2OC)C(OS(=O)(=O)O)C1OS(=O)(=O)O (stereo not drawn) [Compound 9]

Molecule: CC[C@H](C)[C@H](NC(=O)[C@H](CCC(N)=O)NC(=O)[C@H](Cc1c[nH]cn1)NC(=O)[C@H](C)NC(=O)CCCN1C(=O)CC(SCCOCCOCCOCCOCC(=O)NCCOCCOCCOCCO[C@H]2[C@H](OC)[C@@H](OC)[C@@H](O[C@H]3[C@H](OC)[C@@H](OC)[C@H](O[C@H]4[C@H](OS(=O)(=O)O)[C@@H](OS(=O)(=O)O)[C@@H](O[C@H]5[C@H](OC)[C@@H](OC)[C@H](O[C@H]6[C@H](OS(=O)(=O)O)[C@@H](OS(=O)(=O)O)[C@@H](OC)O[C@@H]6COS(=O)(=O)O)O[C@H]5C(=O)O)O[C@@H]4COS(=O)(=O)O)O[C@@H]3C(=O)O)O[C@@H]2COS(=O)(=O)O)C1=O)C(=O)N[C@@H](Cc1ccc(O)cc1)C(=O)N[C@@H](CCC(N)=O)C(=O)N[C@@H](Cc1ccccc1)C(=O)N[C@H](C(=O)N[C@@H](CC(=O)O)C(=O)N[C@@H](CCCCN)C(=O)N[C@@H](CC(=O)O)C(=O)N[C@@H](CCCCN)C(=O)N[C@@H](CC(=O)O)C(=O)N[C@@H](CC(N)=O)C(=O)N[C@H](C(=O)N[C@@H](C)C(=O)N1CCC[C@H]1C(=O)N[C@@H](CCCNC(=N)N)C(=O)N[C@@H](CO)C(=O)N[C@@H](CCCCN)C(=O)N[C@H](C(=O)N[C@@H](CO)C(=O)N1CCC[C@H]1C(=O)N[C@@H](CCC(N)=O)C(=O)NCC(=O)N[C@@H](Cc1ccc(O)cc1)C(N)=O)[C@@H](C)CC)C(C)C)[C@@H](C)O (stereo partly drawn) [Compound 39] (X1-AHQIYQFTDKDKDNVAPRSKISPQGY-NH2)
Cl [1, 6]: 5.0 ± 0.1 mL/h
Vss [1, 6]: 80 ± 3.3 ml/rat

elimination half-life ([1]; rats, control, data not shown): 3.2 h
Molecule: [125IH] [^125I^−]

competitive binding potential to ATIII (in words) (hATIII): no competitive binding to ATIII
Molecule: CCN=C(NCC)NCCCC[C@H](NC(=O)[C@H](CC(C)C)NC(=O)[C@@H](CCCCNC(=NCC)NCC)NC(=O)[C@H](Cc1ccc(O)cc1)NC(=O)[C@H](CO)NC(=O)[C@@H](Cc1cccnc1)NC(=O)[C@@H](Cc1ccc(Cl)cc1)NC(=O)[C@@H](Cc1ccc2ccccc2c1)NC(C)=O)C(=O)N1CCC[C@H]1C(=O)N[C@H](C)C(N)=O [ganirelix] (Ac-[d2Nal][dPhe(4-Cl)][d3Pal]SY[d(hArg(Et2))]L[hArg(Et2)]P[dA]-NH2)
T½ [2]: 1.4 h
t ½ [3]: 12 h

Molecule: C[C@@H](O)[C@@H]1NC(=O)[C@H](CCCCN)NC(=O)[C@@H](Cc2c[nH]c3ccccc23)NC(=O)[C@H](Cc2ccccc2)NC(=O)[C@@H](NC(=O)[C@H](N)Cc2ccccc2)CSSC[C@@H](C(=O)N[C@H](CO)[C@@H](C)O)NC1=O [octreotide]
t ½ [3]: 1.7 h

Molecule: calcitonin
t ½ [3]: 0.333 h

Molecule: insulin detemir
blood glucose lowering activity (comparative example) (glucose levels): less pronounced and less prolonged activity

binding to rat ATIII in circulation (complex detected) (rat ATIII): cannot form a complex with ATIII
Molecule: recH insulin: recombinant human insulin (batch SIHR017, from Diosynth)
AUCinf [4]: 481 h · cpm/0.1 mL
Cl [4]: 4.16 L/h/kg
MRT [4]: 30 min
Vss [4]: 2.225 L/kg
Cl [5]: 0.80 ± 0.12 L/h/kg
MRT [5]: 50.4 ± 360 s
T½ eli [5]: 1.98 ± 0.06 min
Vss [5]: 0.012 ± 0.002 L/kg
